Counter-ions that a name gives are not always drawn.
Target: truncated PI3Kα (p110α/iSH2 p85α) (Homo sapiens (Human), UniProt P42336)
Assay: PI3KA_Act fluorescence polarization kinase assay (Ki)
Type: biochemical
Conditions: 1 mM ATP
In short: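 p110α/iSH2 p85α (0.5 nM) was reacted with 30 μM sonicated PIP2 in 50 mM HEPES pH 7.4, 150 mM NaCl, 5 mM MgCl2, 1 mM DTT and 0.05% CHAPS for 30 min at room temperature, then stopped with EDTA. PIP3 was detected by fluorescence polarization (GST-Grp1 PH domain/TAMRA-PIP3), and Ki came from a Morrison tight-binding fit.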

Sequence of truncated PI3Kα (p110α/iSH2 p85α) (P42336 whole entry, the tested form may be a part): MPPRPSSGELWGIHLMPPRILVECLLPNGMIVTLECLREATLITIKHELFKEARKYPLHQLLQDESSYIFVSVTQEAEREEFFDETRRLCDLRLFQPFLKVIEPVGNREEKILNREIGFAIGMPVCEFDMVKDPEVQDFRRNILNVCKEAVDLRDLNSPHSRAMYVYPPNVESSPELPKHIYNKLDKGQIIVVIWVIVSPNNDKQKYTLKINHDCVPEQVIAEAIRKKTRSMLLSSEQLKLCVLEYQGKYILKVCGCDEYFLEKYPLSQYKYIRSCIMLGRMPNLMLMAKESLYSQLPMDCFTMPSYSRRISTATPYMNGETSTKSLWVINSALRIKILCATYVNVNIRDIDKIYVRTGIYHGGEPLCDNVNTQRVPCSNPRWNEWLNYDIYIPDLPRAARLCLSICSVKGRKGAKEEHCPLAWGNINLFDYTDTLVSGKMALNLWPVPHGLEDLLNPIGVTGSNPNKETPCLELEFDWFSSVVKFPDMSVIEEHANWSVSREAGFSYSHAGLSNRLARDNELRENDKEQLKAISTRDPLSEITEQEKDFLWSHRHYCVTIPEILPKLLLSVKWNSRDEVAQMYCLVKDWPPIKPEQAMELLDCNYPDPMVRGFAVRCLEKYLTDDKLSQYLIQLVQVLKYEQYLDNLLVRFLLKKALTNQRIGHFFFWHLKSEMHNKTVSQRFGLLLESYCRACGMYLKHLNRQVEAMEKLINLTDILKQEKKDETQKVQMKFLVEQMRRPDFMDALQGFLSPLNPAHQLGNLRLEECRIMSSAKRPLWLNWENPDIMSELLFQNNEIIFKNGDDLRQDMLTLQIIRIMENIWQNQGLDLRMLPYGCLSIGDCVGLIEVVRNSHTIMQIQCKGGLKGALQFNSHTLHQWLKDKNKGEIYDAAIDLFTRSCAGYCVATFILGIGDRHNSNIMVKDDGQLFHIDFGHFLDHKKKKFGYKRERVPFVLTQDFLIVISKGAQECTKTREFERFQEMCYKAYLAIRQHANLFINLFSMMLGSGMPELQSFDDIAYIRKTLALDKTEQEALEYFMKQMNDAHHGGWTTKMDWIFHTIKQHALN

Compound	PI3KA_Act Ki [nM]	Ki [nM]
C[C@H]1COCCN1c1nc(-c2cnc(N)nc2)c2c(n1)N([C@@]1(C)CCN(C(=O)[C@H]3CCCO3)C1)CC2 [Example 501, [(3S)-3-{4-(2-aminopyrimidin-5-yl)-2-[(3S)-3-methylmorpholin-4-yl]-5,6-dihydro-7H-pyrrolo[2,3-d]pyrimidin-7-yl}-3-methylpyrrolidin-1-yl][(2R)-tetrahydrofuran-2-yl]methanone]	0.035	–
C[C@H](O)C(=O)N1CC[C@](C)(N2CCc3c(-c4cnc(N)nc4)nc(N4CCOCC4)nc32)C1 [Example 268, (2S)-1-{(3S)-3-[4-(2-aminopyrimidin-5-yl)-2-(morpholin-4-yl)-5,6-dihydro-7H-pyrrolo[2,3-d]pyrimidin-7-yl]-3-methylpyrrolidin-1-yl}-2-hydroxypropan-1-one]	0.100	–
CN1CC[C@@](C)(N2CCc3c(-c4cnc(N)nc4)nc(N4CCOCC4)nc32)C1 [Example 419, 5-{7-[(3R)-1,3-dimethylpyrrolidin-3-yl]-2-(morpholin-4-yl)-6,7-dihydro-5H-pyrrolo[2,3-d]pyrimidin-4-yl}pyrimidin-2-amine]	1.990	–
CC(C)[C@@H](O)C(=O)N1CC[C@](C)(N2CCc3c(-c4cnc(N)nc4)nc(N4CCOCC4)nc32)C1 [Example 271, (2R)-1-{(3S)-3-[4-(2-aminopyrimidin-5-yl)-2-(morpholin-4-yl)-5,6-dihydro-7H-pyrrolo[2,3-d]pyrimidin-7-yl]-3-methylpyrrolidin-1-yl}-2-hydroxy-3-methylbutan-1-one]	0.016	–
CNCC(C)(C)C(=O)N1CC[C@](C)(N2CCc3c(-c4cnc(N)nc4)nc(N4CCOCC4)nc32)C1.Cl [Example 306, 1-{(3S)-3-[4-(2-aminopyrimidin-5-yl)-2-(morpholin-4-yl)-5,6-dihydro-7H-pyrrolo[2,3-d]pyrimidin-7-yl]-3-methylpyrrolidin-1-yl}-2,2-dimethyl-3-(methylamino) propan-1-one hydrochloride]	<0.018	–
COC(=O)C(C)(C)N1CCc2c(-c3cnc(N)nc3)nc(N3CCOCC3)nc21 [Example 165]	0.449	–
C[C@H]1COCCN1c1nc(-c2cnc(N)nc2)c2c(n1)N([C@@]1(C)CCN(C(=O)[C@@H](N)C(F)(F)F)C1)CC2.Cl [Example 490, (2R)-2-amino-1-[(3S)-3-{4-(2-aminopyrimidin-5-yl)-2-[(3S)-3-methylmorpholin-4-yl]-5,6-dihydro-7H-pyrrolo[2,3-d]pyrimidin-7-yl}-3-methylpyrrolidin-1-yl]-3,3,3-trifluoropropan-1-one hydrochloride]	<0.018	–
C[C@]1(N2CCc3c(-c4cnc(N)nc4)nc(N4CCOCC4)nc32)CCN(C(=O)C2(N)CC2)C1.Cl [Example 340, (1-aminocyclopropyl) {(3S)-3-[4-(2-aminopyrimidin-5-yl)-2-(morpholin-4-yl)-5,6-dihydro-7H-pyrrolo[2,3-d]pyrimidin-7-yl]-3-methylpyrrolidin-1-yl}methanone hydrochloride]	0.234	–
CN1CC[C@@H](OC(=O)N2CC[C@](C)(N3CCc4c(-c5cnc(N)nc5)nc(N5CCOCC5)nc43)C2)C1 [Example 416, (3R)-1-methylpyrrolidin-3-yl (3S)-3-[4-(2-aminopyrimidin-5-yl)-2-(morpholin-4-yl)-5,6-dihydro-7H-pyrrolo[2,3-d]pyrimidin-7-yl]-3-methylpyrrolidine-1-carboxylate]	<0.018	–
CN(C)C(=O)CN1CC[C@](C)(N2CCc3c(-c4cnc(N)nc4)nc(N4CCOCC4)nc32)C1 [Example 403, 2-{(3S)-3-[4-(2-aminopyrimidin-5-yl)-2-(morpholin-4-yl)-5,6-dihydro-7H-pyrrolo[2,3-d]pyrimidin-7-yl]-3-methylpyrrolidin-1-yl}-N,N-dimethylacetamide]	0.053	–
COCC(C)(C)N1CCc2c(-c3cnc(N)nc3)nc(N3CCOCC3)nc21 [Example 188]	0.642	–
CC(C)(O)C(=O)N1CC(N2CCc3c(-c4cnc(N)nc4)nc(N4CCOCC4)nc32)C1 [Example 241, 1-{3-[4-(2-aminopyrimidin-5-yl)-2-(morpholin-4-yl)-5,6-dihydro-7H-pyrrolo[2,3-d]pyrimidin-7-yl]azetidin-1-yl}-2-hydroxy-2-methylpropan-1-one]	1.174	–
C[C@H]1COCCN1c1nc(-c2cnc(N)nc2)c2c(n1)N([C@@]1(C)CCN(C(=O)OC(C)(C)C)C1)CC2 [Example 512, tert-butyl (3S)-3-{4-(2-aminopyrimidin-5-yl)-2-[(3S)-3-methylmorpholin-4-yl]-5,6-dihydro-7H-pyrrolo[2,3-d]pyrimidin-7-yl}-3-methylpyrrolidine-1-carboxylate]	<0.018	–
CS(=O)(=O)N1C[C@H]2C[C@@]2(N2CCc3c(-c4cnc(N)nc4)nc(N4CCOCC4)nc32)C1 [Example 436, 5-{7-[(1S,5R)-3-(methylsulfonyl)-3-azabicyclo[3.1.0]hex-1-yl]-2-(morpholin-4-yl)-6,7-dihydro-5H-pyrrolo[2,3-d]pyrimidin-4-yl}pyrimidin-2-amine]	0.189	–
Nc1ncc(-c2nc(N3CCOC[C@H]3CO)nc3c2CCN3C2CC(F)(F)C2)cn1 [Example 3, {(3R)-4-[4-(2-aminopyrimidin-5-yl)-7-(3,3-difluorocyclobutyl)-6,7-dihydro-5H-pyrrolo[2,3-d]pyrimidin-2-yl]morpholin-3-yl}methanol]	118.146	–
CN1CC[C@H]1C(=O)N1CC[C@](C)(N2CCc3c(-c4cnc(N)nc4)nc(N4CCOCC4)nc32)C1 [Example 354, {(3S)-3-[4-(2-aminopyrimidin-5-yl)-2-(morpholin-4-yl)-5,6-dihydro-7H-pyrrolo[2,3-d]pyrimidin-7-yl]-3-methylpyrrolidin-1-yl}[(2S)-1-methylazetidin-2-yl]methanone]	0.049	–
C[C@H]1COCCN1c1nc(-c2cnc(N)nc2)c2c(n1)N(C1(C)CCNCC1)CC2.Cl [Example 516, 5-{2-[(3S)-3-methylmorpholin-4-yl]-7-(4-methylpiperidin-4-yl)-6,7-dihydro-5H-pyrrolo[2,3-d]pyrimidin-4-yl}pyrimidin-2-amine hydrochloride]	0.346	–
CC[C@@]1(N2CCc3c(-c4cnc(N)nc4)nc(N4CCOCC4)nc32)CCN(C(=O)C(C)(C)N)C1.Cl [Example 284, 2-amino-1-{(3R)-3-[4-(2-aminopyrimidin-5-yl)-2-(morpholin-4-yl)-5,6-dihydro-7H-pyrrolo[2,3-d]pyrimidin-7-yl]-3-ethylpyrrolidin-1-yl}-2-methylpropan-1-one hydrochloride]	0.368	–
C[C@H]1COCCN1c1nc(-c2cnc(N)nc2)c2c(n1)N([C@H]1C[C@H](N)C1)CC2.Cl [Example 443, 5-{7-(trans-3-aminocyclobutyl)-2-[(3S)-3-methylmorpholin-4-yl]-6,7-dihydro-5H-pyrrolo[2,3-d]pyrimidin-4-yl}pyrimidin-2-amine hydrochloride]	0.944	–
CC(C)(CO)N1CCc2c(-c3cnc(N)nc3)nc(N3CCOCC3)nc21 [Example 183]	0.393	–
CN(C)C(C)(C)C(=O)N1CC[C@](C)(N2CCc3c(-c4cnc(N)nc4)nc(N4CCOCC4)nc32)C1 [Example 304, 1-{(3S)-3-[4-(2-aminopyrimidin-5-yl)-2-(morpholin-4-yl)-5,6-dihydro-7H-pyrrolo[2,3-d]pyrimidin-7-yl]-3-methylpyrrolidin-1-yl}-2-(dimethylamino)-2-methylpropan-1-one]	<0.018	–
[2H]C1([2H])OC([2H])([2H])C([2H])([2H])N(c2nc(-c3cnc(N)nc3)c3c(n2)N([C@@]2(C)CCN(C(=O)C(C)(C)N)C2)CC3)C1([2H])[2H] [Example 10, (S)-2-amino-1-(3-(4-(2-aminopyrimidin-5-yl)-2-morpholino-d8)-5,6-dihydro-7H-pyrrolo[2,3-d]pyrimidin-7-yl)-3-methylpyrrolidin-1-yl)-2-methylpropan-1-one hydrochloride]	–	< 0.018
COC(=O)C(C)(C)N1CC[C@](C)(N2CCc3c(-c4cnc(N)nc4)nc(N4CCOCC4)nc32)C1 [Example 423, methyl 2-{(3S)-3-[4-(2-aminopyrimidin-5-yl)-2-(morpholin-4-yl)-5,6-dihydro-7H-pyrrolo[2,3-d]pyrimidin-7-yl]-3-methylpyrrolidin-1-yl}-2-methylpropanoate]	0.445	–
CC(=O)N1CC(C)(N2CCc3c(-c4cnc(N)nc4)nc(N4CCOC[C@@H]4C)nc32)C1 [Example 452, 1-(3-{4-(2-aminopyrimidin-5-yl)-2-[(3S)-3-methylmorpholin-4-yl]-5,6-dihydro-7H-pyrrolo[2,3-d]pyrimidin-7-yl}-3-methylazetidin-1-yl)ethanone]	0.090	–
CCS(=O)(=O)N1CC(C)(N2CCc3c(-c4cnc(N)nc4)nc(N4CCOCC4)nc32)C1 [Example 196]	0.024	–
Nc1ncc(-c2nc(N3CCOC[C@@H]3CO)nc3c2CCN3C2CC(F)(F)C2)cn1 [Example 171]	2.745	–
CNC(=O)CN1CC[C@@](C)(N2CCc3c(-c4cnc(N)nc4)nc(N4CCOCC4)nc32)C1 [Example 400, 2-{(3R)-3-[4-(2-aminopyrimidin-5-yl)-2-(morpholin-4-yl)-5,6-dihydro-7H-pyrrolo[2,3-d]pyrimidin-7-yl]-3-methylpyrrolidin-1-yl}-N-methylacetamide]	0.781	–
CC1(OC(=O)N2CC[C@](C)(N3CCc4c(-c5cnc(N)nc5)nc(N5CCOCC5)nc43)C2)CNC1.Cl [Example 414, 3-methylazetidin-3-yl (3S)-3-[4-(2-aminopyrimidin-5-yl)-2-(morpholin-4-yl)-5,6-dihydro-7H-pyrrolo[2,3-d]pyrimidin-7-yl]-3-methylpyrrolidine-1-carboxylate hydrochloride]	0.039	–
CC(C)C(C)(C)N1CCc2c(-c3cnc(N)nc3)nc(N3CCOCC3)nc21 [Example 176]	0.462	–
